Our source for the IC50 values is patent publication US20230081426A1, “COMPOUNDS AND METHODS FOR KRAS MODULATION AND INDICATIONS THEREFOR” (Plexxikon Inc., priority 2020, published 2023).

The target of assay [1] is T1, G12V-mutant human KRAS (amino acid residues 1-188) (Homo sapiens, UniProt P01116, G12V).
T1 construct: G12V-mutant human KRAS (amino acid residues 1-188) with FLAG tag was purified from E. coli; made in house; host or cells: E. coli
The assay is described as follows: KRAS Binding Competition Assay (AlphaScreen; biotinylated KRpep-2d analogue), G12V. Particulars: geometric mean, read-out: KRAS GMean IC50 (uM) MUTATION: G12V. A general note: In Alpha technology, singlet oxygen from a donor bead excites a nearby acceptor bead.

Assay [2] deals with T2, G12D-mutant human KRAS (amino acid residues 1-188) (Homo sapiens, UniProt P01116, G12D).
T2 construct: G12D or G12C-mutant human KRAS (amino acid residues 1-188) with FLAG tag; made in house; host or cells: E. coli
The assay is described as follows: KRAS Binding Disruption Assay (AlphaScreen; biotinylated KRpep-2d analogue or RAF1-RBD), G12D. Particulars: KRAS G12D; geometric mean; read-out: KRAS GMean IC50 (uM) MUTATION: G12D. The method, boiled down:
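Mutant KRAS (5-20 nM) incubated 1 h at 25° C with test compound and 5-20 nM biotinylated KRpep-2d analogue or RAF1-RBD in 20 mM HEPES pH 7.5, 100 mM NaCl, 5 mM MgCl2, 0.01% Tween-20, 0.01% BSA.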

`CN(C)c1ccc(CCc2nc(N3C[C@H]4CC[C@@H](C3)N4)c3cc(Cl)c(-c4c(O)cccc4F)c(F)c3n2)cc1` [P-0326, 2-(4-((1R,5S)-3,8-diazabicyclo[3.2.1]octan-3-yl)-6-chloro-2-(4-(dimethylamino)phenethyl)-8-fluoroquinazolin-7-yl)-3-fluorophenol]: the IC50 in assay [1] and in assay [2] was 0.0001 to 10 µM in each case.
`CN1CCC[C@H]1COc1nc(N2CC3CCC2CN3)c2ccc(-c3cc(O)cc4ccccc34)c(F)c2n1` (stereo partly drawn) [P-0327, 4-(4-(2,5-diazabicyclo[2.2.2]octan-2-yl)-8-fluoro-2-(((S)-1-methylpyrrolidin-2-yl)methoxy)quinazolin-7-yl)naphthalen-2-ol]: the half-inhibitory concentration (IC50) (commonly the concentration that inhibits the measured activity by half) lay in the range of 10 to 100 µM in assay [1] and 0.0001 to 10 µM in assay [2].
The corresponding values for `CN1CCC(Oc2nc(N3C[C@H]4CC[C@@H](C3)N4)c3cc(Cl)c(-c4c(O)cccc4F)c(F)c3n2)CC1` [P-0329, 2-(4-((1R,5S)-3,8-diazabicyclo[3.2.1]octan-3-yl)-6-chloro-8-fluoro-2-((1-methylpiperidin-4-yl)oxy)quinazolin-7-yl)-3-fluorophenol] are 10 to 100 µM and 0.0001 to 10 µM.
For the compound `COc1cccc(F)c1-c1c(Cl)cc2c(N3C[C@H]4CC[C@@H](C3)N4)nc(OC3CCN(C)CC3)nc2c1F` [P-0330, 4-((1R,5S)-3,8-diazabicyclo[3.2.1]octan-3-yl)-6-chloro-8-fluoro-7-(2-fluoro-6-methoxyphenyl)-2-((1-methylpiperidin-4-yl)oxy)quinazoline], the IC50 in assay [1] lay in the range of 10 to 100 µM; in assay [2] it was 0.0001 to 10 µM.
The like results for `CN1CCc2cccc(Oc3nc(N4C[C@H]5CC[C@@H](C4)N5)c4cc(Cl)c(-c5c(O)cccc5F)c(F)c4n3)c2C1` [P-0331, 2-(4-((1R,5S)-3,8-diazabicyclo[3.2.1]octan-3-yl)-6-chloro-8-fluoro-2-((2-methyl-1,2,3,4-tetrahydroisoquinolin-8-yl)oxy)quinazolin-7-yl)-3-fluorophenol] were, in that order, 10 to 100 µM and 0.0001 to 10 µM.
The like results for `CN1CCc2cccc(Oc3nc(N4C[C@H]5CC[C@@H](C4)N5)c4ccc(-c5c(O)cccc5F)c(F)c4n3)c2C1` [P-0332, 2-(4-((1R,5S)-3,8-diazabicyclo[3.2.1]octan-3-yl)-8-fluoro-2-((2-methyl-1,2,3,4-tetrahydroisoquinolin-8-yl)oxy)quinazolin-7-yl)-3-fluorophenol] were, in that order, 10 to 100 µM and 10 to 100 µM.
The corresponding values for `CN1CCc2c(cccc2Oc2nc(N3C[C@H]4CC[C@@H](C3)N4)c3cc(Cl)c(-c4c(O)cccc4F)c(F)c3n2)C1` [P-0333, 2-(4-((1R,5S)-3,8-diazabicyclo[3.2.1]octan-3-yl)-6-chloro-8-fluoro-2-((2-methyl-1,2,3,4-tetrahydroisoquinolin-5-yl)oxy)quinazolin-7-yl)-3-fluorophenol] are 10 to 100 µM and 0.0001 to 10 µM.
In the case of `CN1CCc2c(cccc2Oc2nc(N3C[C@H]4CC[C@@H](C3)N4)c3ccc(-c4c(O)cccc4F)c(F)c3n2)C1` [P-0334, 2-(4-((1R,5S)-3,8-diazabicyclo[3.2.1]octan-3-yl)-8-fluoro-2-((2-methyl-1,2,3,4-tetrahydroisoquinolin-5-yl)oxy)quinazolin-7-yl)-3-fluorophenol], the IC50 in assay [1] and in assay [2] was 10 to 100 µM in each case.
Regarding `COc1cccc(F)c1-c1c(Cl)cc2c(N3C[C@H]4CC[C@@H](C3)N4)nc(Oc3cccc4c3CN(C)CC4)nc2c1F` [P-0335, 4-((1R,5S)-3,8-diazabicyclo[3.2.1]octan-3-yl)-6-chloro-8-fluoro-7-(2-fluoro-6-methoxyphenyl)-2-((2-methyl-1,2,3,4-tetrahydroisoquinolin-8-yl)oxy)quinazoline], the IC50 in assay [1] and in assay [2] was 10 to 100 µM each time.
Turning to `CN1CCC[C@H]1COc1nc(N2[C@@H]3CC[C@H]2CNC3)c2ccc(-c3cc(O)cc4ccccc34)cc2n1` [P-0336, 4-(4-((1R,5S)-3,8-diazabicyclo[3.2.1]octan-8-yl)-2-(((S)-1-methylpyrrolidin-2-yl)methoxy)quinazolin-7-yl)naphthalen-2-ol], the IC50 in assay [1] is 10 to 100 µM; in assay [2] it was 0.0001 to 10 µM.
`CN1CCC[C@H]1COc1nc(N2C[C@H]3CC[C@@H](C2)N3)c2ccc(-c3cccc4ccccc34)cc2n1` [P-0337, 4-((1R,5S)-3,8-diazabicyclo[3.2.1]octan-3-yl)-2-(((S)-1-methylpyrrolidin-2-yl)methoxy)-7-(naphthalen-1-yl)quinazoline]: the 50% inhibitory concentration (IC50) in assay [1] is 100 to 1000 µM; in assay [2], 0.0001 to 10 µM.
The like results for `CN1CCC[C@H]1COc1nc(N2C[C@H]3CC[C@@H](C2)N3)c2ccc(-c3c(O)ccc4ccccc34)cc2n1` [P-0338, 1-(4-((1R,5S)-3,8-diazabicyclo[3.2.1]octan-3-yl)-2-(((S)-1-methylpyrrolidin-2-yl)methoxy)quinazolin-7-yl)naphthalen-2-ol] were, in that order, 10 to 100 µM and 0.0001 to 10 µM.
With `CN1CCC[C@H]1COc1nc(N2C[C@H]3CC[C@@H](C2)N3)c2ccc(-c3cc([N+](=O)[O-])cc4ccccc34)cc2n1` [P-0339, 4-((1R,5S)-3,8-diazabicyclo[3.2.1]octan-3-yl)-2-(((S)-1-methylpyrrolidin-2-yl)methoxy)-7-(3-nitronaphthalen-1-yl)quinazoline], the IC50 in assay [1] and in assay [2] was 10 to 100 µM throughout.
For `CN1CCC[C@H]1COc1nc(N2C[C@H]3CC[C@@H](C2)N3)c2ccc(-c3cc(N)cc4ccccc34)cc2n1` [P-0340, 4-(4-((1R,5S)-3,8-diazabicyclo[3.2.1]octan-3-yl)-2-(((S)-1-methylpyrrolidin-2-yl)methoxy)quinazolin-7-yl)naphthalen-2-amine], the IC50 in assay [1] fell in the range of 10 to 100 µM; in assay [2] it was 0.0001 to 10 µM.
Take `Cc1c(N)cccc1-c1ccc2c(N3C[C@H]4CC[C@@H](C3)N4)nc(OC[C@@H]3CCCN3C)nc2c1` [P-0341, 3-(4-((1R,5S)-3,8-diazabicyclo[3.2.1]octan-3-yl)-2-(((S)-1-methylpyrrolidin-2-yl)methoxy)quinazolin-7-yl)-2-methylaniline]: the IC50 fell in the range of 10 to 100 µM in assay [1] and 100 to 1000 µM in assay [2].
Turning to `CN1CCC[C@H]1COc1nc(N2C[C@H]3CC[C@@H](C2)N3)c2ccc(-c3c(O)cccc3Cl)cc2n1` [P-0342, 2-(4-((1R,5S)-3,8-diazabicyclo[3.2.1]octan-3-yl)-2-(((S)-1-methylpyrrolidin-2-yl)methoxy)quinazolin-7-yl)-3-chlorophenol], the IC50 lay within 10 to 100 µM in assay [1] and 0.0001 to 10 µM in assay [2].
Take `Cc1cccc(N)c1-c1ccc2c(N3C[C@H]4CC[C@@H](C3)N4)nc(OC[C@@H]3CCCN3C)nc2c1` [P-0343, 2-(4-((1R,5S)-3,8-diazabicyclo[3.2.1]octan-3-yl)-2-(((S)-1-methylpyrrolidin-2-yl)methoxy)quinazolin-7-yl)-3-methylaniline]: the IC50 in assay [1] and in assay [2] was 10 to 100 µM throughout.
As to `CN1CCC[C@H]1COc1nc(N2C[C@H]3CC[C@@H](C2)N3)c2cc(F)c(N3CC(O)Cc4ccccc43)c(F)c2n1` (stereo partly drawn) [P-0344, 1-(4-((1R,5S)-3,8-diazabicyclo[3.2.1]octan-3-yl)-6,8-difluoro-2-(((S)-1-methylpyrrolidin-2-yl)methoxy)quinazolin-7-yl)-1,2,3,4-tetrahydroquinolin-3-ol], the values for the IC50 in assay [1] and in assay [2] were 100 to 1000 µM and 0.0001 to 10 µM, respectively.
The like results for `CN1CCC[C@H]1COc1nc(N2[C@@H]3CC[C@H]2CN(CC(=O)C2CCNCC2)C3)c2ccc(-c3cc(O)cc4ccccc34)cc2n1` [P-0345, 2-((1R,5S)-8-(7-(3-hydroxynaphthalen-1-yl)-2-(((S)-1-methylpyrrolidin-2-yl)methoxy)quinazolin-4-yl)-3,8-diazabicyclo[3.2.1]octan-3-yl)-1-(piperidin-4-yl)ethan-1-one] were, in that order, 10 to 100 µM and 0.0001 to 10 µM.
The like results for `CN1CCC[C@H]1COc1nc(N2[C@@H]3CC[C@H]2CN(CC(O)CN2CCOCC2)C3)c2ccc(-c3cc(O)cc4ccccc34)cc2n1` (stereo partly drawn) [P-0346, 4-(4-((1R,5S)-3-(2-hydroxy-3-morpholinopropyl)-3,8-diazabicyclo[3.2.1]octan-8-yl)-2-(((S)-1-methylpyrrolidin-2-yl)methoxy)quinazolin-7-yl)naphthalen-2-ol] were, in that order, 10 to 100 µM and 0.0001 to 10 µM.
The like results for `CN1CCC[C@H]1COc1nc(N2[C@@H]3CC[C@H]2CN(C(=O)Nc2cnc[nH]2)C3)c2ccc(-c3cc(O)cc4ccccc34)cc2n1` [P-0347, (1R,5S)-8-(7-(3-hydroxynaphthalen-1-yl)-2-(((S)-1-methylpyrrolidin-2-yl)methoxy)quinazolin-4-yl)-N-(1H-imidazol-5-yl)-3,8-diazabicyclo[3.2.1]octane-3-carboxamide] were, in that order, 0.0001 to 10 µM and 0.0001 to 10 µM.
Take `CN1CCC[C@H]1COc1nc(N2[C@@H]3CC[C@H]2CN(CC2(O)CCNCC2)C3)c2ccc(-c3cc(O)cc4ccccc34)cc2n1` [P-0348, 4-(((1R,5S)-8-(7-(3-hydroxynaphthalen-1-yl)-2-(((S)-1-methylpyrrolidin-2-yl)methoxy)quinazolin-4-yl)-3,8-diazabicyclo[3.2.1]octan-3-yl)methyl)piperidin-4-ol]: the IC50 in assay [1] and in assay [2] was 10 to 100 µM throughout.
In the case of `CN1CCC[C@H]1COc1nc(N2[C@@H]3CC[C@H]2CN(C(=N)NC#N)C3)c2ccc(-c3cc(O)cc4ccccc34)cc2n1` [P-0349, (1R,5S)-N-cyano-8-(7-(3-hydroxynaphthalen-1-yl)-2-(((S)-1-methylpyrrolidin-2-yl)methoxy)quinazolin-4-yl)-3,8-diazabicyclo[3.2.1]octane-3-carboximidamide], the 50% inhibitory concentration (IC50) is 0.0001 to 10 µM in assay [1] and 10 to 100 µM in assay [2].
